# Source: ChEMBL document CHEMBL3797052 (Eur J Med Chem, 2016)
# Tests used:
# Format in all cases: functional
# [1] = Antiproliferative activity against human Caki1 cells assessed as cell growth at 10^-4 M after 48 hrs by sulforhodamine B assay; conditions: CAKI-1, 48 h, read-out: Activity
# [2] = Antiproliferative activity against human SF295 cells assessed as cell growth at 10^-6 M after 48 hrs by sulforhodamine B assay; conditions: SF-295, 48 h, read-out: Activity
# [3] = Antiproliferative activity against human OVCAR5 cells assessed as growth inhibition after 48 hrs by sulforhodamine B assay; conditions: OVCAR-5, 48 h; for CC50: read-out: LC50 (the source's name)
# [4] = Antiproliferative activity against human SF295 cells assessed as growth inhibition after 48 hrs by sulforhodamine B assay; conditions: SF-295, 48 h; for CC50: read-out: LC50 (the source's name)
# [5] = Antiproliferative activity against human OVCAR8 cells assessed as cell growth at 10^-8 M after 48 hrs by sulforhodamine B assay; conditions: OVCAR-8, 48 h, read-out: Activity
# [6] = system: SN12C; experiment: Antiproliferative activity against human SN12C cells assessed as growth inhibition after 48 hrs by sulforhodamine B assay; conditions: for CC50: read-out: LC50 (the source's name)
# [7] = system: MDA-MB-468; experiment: Antiproliferative activity against human MDA-MB-468 cells assessed as growth inhibition after 48 hrs by sulforhodamine B assay; conditions: MDA-MB-468, 48 h; for CC50: read-out: LC50 (the source's name)
# [8] = Antiproliferative activity against human PC3 cells assessed as cell growth at 10^-6 M after 48 hrs by sulforhodamine B assay; conditions: PC-3, 48 h, read-out: Activity
# [9] = system: NCI-H226; experiment: Antiproliferative activity against human NCI-H226 cells assessed as cell growth at 10^-7 M after 48 hrs by sulforhodamine B assay; conditions: NCI-H226, 48 h, read-out: Activity
# [10] = Antiproliferative activity against human SW620 cells assessed as growth inhibition after 48 hrs by sulforhodamine B assay; conditions: SW-620, 48 h; for CC50: read-out: LC50 (the source's name)
# [11] = system: M14; experiment: Antiproliferative activity against human M14 cells assessed as cell growth at 10^-7 M after 48 hrs by sulforhodamine B assay; conditions: M14, 48 h, read-out: Activity
# [12] = system: SK-MEL-5; experiment: Antiproliferative activity against human SK-MEL-5 cells assessed as cell growth at 10^-6 M after 48 hrs by sulforhodamine B assay; conditions: SK-MEL-5, 48 h, read-out: Activity
# [13] = system: T47D; experiment: Antiproliferative activity against human T47D cells assessed as cell growth at 10^-4 M after 48 hrs by sulforhodamine B assay; conditions: read-out: Activity
# [14] = Antiproliferative activity against human OVCAR4 cells assessed as cell growth at 10^-7 M after 48 hrs by sulforhodamine B assay; conditions: OVCAR-4, 48 h, read-out: Activity
# [15] = Antiproliferative activity against human HOP92 cells assessed as cell growth at 10^-4 M after 48 hrs by sulforhodamine B assay; conditions: HOP-92, 48 h, read-out: Activity
# [16] = system: M14; experiment: Antiproliferative activity against human M14 cells assessed as cell growth at 10^-8 M after 48 hrs by sulforhodamine B assay; conditions: M14, 48 h, read-out: Activity
# [17] = Antiproliferative activity against human HCT116 cells assessed as cell growth at 10^-4 M after 48 hrs by sulforhodamine B assay; conditions: HCT-116, 48 h, read-out: Activity
# [18] = system: NCI-H322M; experiment: Antiproliferative activity against human NCI-H322M cells assessed as cell growth at 10^-7 M after 48 hrs by sulforhodamine B assay; conditions: read-out: Activity
# [19] = Antiproliferative activity against human SF539 cells assessed as cell growth at 10^-7 M after 48 hrs by sulforhodamine B assay; conditions: SF-539, 48 h, read-out: Activity
# [20] = Antiproliferative activity against human SNB19 cells assessed as cell growth at 10^-7 M after 48 hrs by sulforhodamine B assay; conditions: SNB-19, 48 h, read-out: Activity
# [21] = system: NCI-H522; experiment: Antiproliferative activity against human NCI-H522 cells assessed as growth inhibition after 48 hrs by sulforhodamine B assay; conditions: NCI-H522, 48 h
# [22] = Antiproliferative activity against human UACC62 cells assessed as cell growth at 10^-6 M after 48 hrs by sulforhodamine B assay; conditions: UACC-62, 48 h, read-out: Activity
# [23] = Antiproliferative activity against human SNB19 cells assessed as cell growth at 10^-6 M after 48 hrs by sulforhodamine B assay; conditions: SNB-19, 48 h, read-out: Activity
# [24] = system: HT-29; experiment: Antiproliferative activity against human HT-29 cells assessed as cell growth at 10^-4 M after 48 hrs by sulforhodamine B assay; conditions: HT-29, 48 h, read-out: Activity
# [25] = system: NCI-H460; experiment: Antiproliferative activity against human NCI-H460 cells assessed as growth inhibition after 48 hrs by sulforhodamine B assay; conditions: NCI-H460, 48 h
# [26] = Antiproliferative activity against human OVCAR3 cells assessed as cell growth at 10^-6 M after 48 hrs by sulforhodamine B assay; conditions: OVCAR-3, 48 h, read-out: Activity
# [27] = Antiproliferative activity against human HOP62 cells assessed as cell growth at 10^-6 M after 48 hrs by sulforhodamine B assay; conditions: HOP-62, 48 h, read-out: Activity
# [28] = system: M14; experiment: Antiproliferative activity against human M14 cells assessed as growth inhibition after 48 hrs by sulforhodamine B assay; conditions: M14, 48 h; for CC50: read-out: LC50 (the source's name)
# [29] = system: SK-MEL-28; experiment: Antiproliferative activity against human SK-MEL-28 cells assessed as cell growth at 10^-7 M after 48 hrs by sulforhodamine B assay; conditions: SK-MEL-28, 48 h, read-out: Activity
# [30] = system: SK-MEL-28; experiment: Antiproliferative activity against human SK-MEL-28 cells assessed as cell growth at 10^-8 M after 48 hrs by sulforhodamine B assay; conditions: SK-MEL-28, 48 h, read-out: Activity
# [31] = system: MDA-MB-231; experiment: Antiproliferative activity against human MDA-MB-231 cells assessed as cell growth at 10^-4 M after 48 hrs by sulforhodamine B assay; conditions: MDA-MB-231, 48 h, read-out: Activity
# [32] = Antiproliferative activity against human SNB19 cells assessed as cell growth at 10^-8 M after 48 hrs by sulforhodamine B assay; conditions: SNB-19, 48 h, read-out: Activity
# [33] = system: CCRF-CEM; experiment: Antiproliferative activity against human CCRF-CEM cells assessed as growth inhibition after 48 hrs by sulforhodamine B assay; conditions: for CC50: read-out: LC50 (the source's name)
# [34] = Antiproliferative activity against human BT549 cells assessed as cell growth at 10^-4 M after 48 hrs by sulforhodamine B assay; conditions: BT-549, 48 h, read-out: Activity
structure (smiles),measurement,setting,value
CNC(=O)c1cc(Oc2ccc3nc(NC(=O)c4cc(C(F)(F)F)cc(C(F)(F)F)c4)sc3c2)ccn1,growth at 100 µM,[1],-63%
same,growth at 1 µM,[2],83%
same,GI50,[3],4.23 µM
same,TGI,[3],25 µM
same,CC50,[3],> 100 µM
same,GI50,[4],2.56 µM
same,TGI,[4],10.5 µM
same,CC50,[4],49.6 µM
same,growth at 0.01 µM,[5],97%
same,GI50,[6],3.22 µM
same,TGI,[6],12.5 µM
same,CC50,[6],89.8 µM
same,GI50,[7],3.18 µM
same,TGI,[7],14.2 µM
same,CC50,[7],> 100 µM
same,growth at 1 µM,[8],80%
same,growth at 0.1 µM,[9],99%
same,GI50,[10],7.56 µM
same,TGI,[10],63.8 µM
same,CC50,[10],> 100 µM
same,growth at 0.1 µM,[11],91%
same,growth at 1 µM,[12],83%
same,growth at 100 µM,[13],-40%
same,growth at 0.1 µM,[14],92%
same,growth at 100 µM,[15],-41%
same,growth at 0.01 µM,[16],99%
same,growth at 100 µM,[17],-84%
same,growth at 0.1 µM,[18],93%
same,growth at 0.1 µM,[19],91%
same,growth at 0.1 µM,[20],103%
same,GI50,[21],2.82 µM
same,LC50 (concentration killing 50% of cells),[21],64.1 µM
same,TGI,[21],8.77 µM
same,growth at 1 µM,[22],84%
same,growth at 1 µM,[23],96%
same,growth at 100 µM,[24],-51%
same,GI50,[25],3.83 µM
same,LC50 (concentration killing 50% of cells),[25],58.9 µM
same,TGI,[25],14.6 µM
same,growth at 1 µM,[26],90%
same,growth at 1 µM,[27],103%
same,GI50,[28],3.61 µM
same,TGI,[28],19.5 µM
same,CC50,[28],> 100 µM
same,growth at 0.1 µM,[29],96%
same,growth at 0.01 µM,[30],97%
same,growth at 100 µM,[31],-67%
same,growth at 0.01 µM,[32],98%
same,GI50,[33],3.47 µM
same,TGI,[33],> 100 µM
same,CC50,[33],> 100 µM
same,growth at 100 µM,[34],-48%
CNC(=O)c1cc(Oc2ccc(NC(=O)Nc3ccc(Cl)c(C(F)(F)F)c3)cc2)ccn1 [SORAFENIB],GI50,[3],3.16 µM
same,TGI,[3],20 µM
same,CC50,[3],79.4 µM
same,TGI,[4],5.01 µM
same,CC50,[4],31.6 µM
same,GI50,[6],2.51 µM
same,TGI,[6],10 µM
same,CC50,[6],39.8 µM
same,GI50,[7],2 µM
same,TGI,[7],7.94 µM
same,CC50,[7],39.8 µM
same,GI50,[10],2.51 µM
same,TGI,[10],12.6 µM
same,CC50,[10],39.8 µM
same,GI50,[21],2 µM
same,TGI,[21],6.31 µM
same,GI50,[25],2.51 µM
same,TGI,[25],10 µM
same,GI50,[28],2 µM
same,TGI,[28],5.01 µM
same,CC50,[28],25.1 µM
same,GI50,[33],2 µM
same,TGI,[33],100 µM
same,CC50,[33],100 µM
